Measurements: patent US9808470B2, “Estrogenic components for use in the treatment of neurological disorders” (UNIVERSITE DE LIEGE, priority 2012, dated 2017)

Legend:
Format in all cases: in vivo
[1] = Ex.3 neuroprotective HIE rat model: body weight
Description: (§1) Newborn rat pups were assigned to one of the following 6 groups from postnatal day 4: Sham group (n=24), Vehicle group (n=14), E4 1 mg/kg/per day group (n=11), E4 5 mg/kg/per day group (n=14), E4 10 mg/kg/per day group (n=14), or E4 50 mg/kg/per day group (n=19). From postnatal day 4, rat pups were intraperitoneally injected either vehicle (Vehicle group) or E4 (1, 5, 10, or 50 mg/kg/per day in accordance to the E4 group assignment) or neither vehicle nor E4 (Sham group). At day 7, 30 minutes after last injection, animals were anesthetized with isoflurane (induction, 3.0%; maintenance, 1.5%), and the rat pups from Vehicle and E4 groups passed through surgery encompassing left common carotid artery double ligation and cut. After the procedure, the pups were returned to their dams and were allowed to recover for 1 hour. The pups were then placed in the humidified hypoxic in vivo cabinet (CoyLab, Grass Lake, Mich., USA). Hypoxia was produced by the inhalation of 11%-8% of oxygen balanced by nitrogen at decreased concentration of oxygen for 20 minutes, followed by inhalation of 8% oxygen and 92% nitrogen at constant concentration for 35 minutes. All the manipulations were performed at 37° C. The Sham group went through similar procedures without left common carotid artery ligation followed by hypoxia nor injection. Rat pups recovered with their dams and reared normally until being sacrificed at postnatal day 14.
To monitor the post-operative well-being of the rat pups due to the performed manipulations and estetrol pre-treatment, the body weight was monitored from postnatal day 7 to day 14 inclusive.

[2] = Ex.8 therapeutic HIE rat model (E4 alone or combinations): rectal temperature; details: vs sham
Description: All the compounds used for in vivo studies were dissolved in absolute Ethanol (ETOH) and further diluted in saline solution at a final concentration of ETOH 10%. An equal volume (5 μ1/g) of the solution was injected intraperitoneally (ip) into the pups from study groups. Rat pups from the vehicle group were ip injected a saline solution containing 10% ETOH. Rat pups from the Sham group were not injected at all.
To study the therapeutic effect of estetrol, newborn rat pups were assigned to one of the following 14 groups at postnatal day 7 (FIG. 23(B)): Sham group (n=12), Vehicle (n=15), 5 mg/kg/day E4 (n=11), 10 mg/kg/day E4 (n=11), 5 mg/kg/day E4+1.6 mg/kg/day PROG (n=11), 10 mg/kg/day E4+1.6 mg/kg/day PROG (n=11), 5 mg/kg/day E4+16 mg/kg/day PROG (n=11), 10 mg/kg/day E4+16 mg/kg/day PROG (n=13), 5 mg/kg/day E4+136 ng//kg/day E2 (n=11), 10 mg/kg/day E4+136 ng/kg/day E2 (n=11), 5 mg/kg/day E4+1.6 mg/kg/day PROG+136 ng/kg/day E2 (n=12), 10 mg/kg/day E4+1.6 mg/kg/day PROG+136 ng/kg/day E2 (n=11), 5 mg/kg/day E4+16 mg/kg/day PROG+136 ng/kg/day E2 (n=11), 10 mg/kg/day E4+16 mg/kg/day PROG+136 ng/kg/day (n=12) groups. […]
The rectal temperature of the rat pups was measured with a multipurpose thermometer (BAT-10R, Physitemp Instruments Inc., Clifton, N.J., US) along with a rectal probe (RET-4, BioMedical Instruments, Zollnitz, Germany) at 0, 2, and 4 hours after exposure to hypoxic insult. […]

[3] = test system: glial fibrillary acidic protein (GFAP); experiment: Ex.8 therapeutic HIE rat model: blood serum GFAP ELISA; details: 10 mg/kg/day E4, PND14
Description: To study the therapeutic effect of estetrol, newborn rat pups were assigned to one of the following 14 groups at postnatal day 7 (FIG. 23(B)): Sham group (n=12), Vehicle (n=15), 5 mg/kg/day E4 (n=11), 10 mg/kg/day E4 (n=11), 5 mg/kg/day E4+1.6 mg/kg/day PROG (n=11), 10 mg/kg/day E4+1.6 mg/kg/day PROG (n=11), 5 mg/kg/day E4+16 mg/kg/day PROG (n=11), 10 mg/kg/day E4+16 mg/kg/day PROG (n=13), 5 mg/kg/day E4+136 ng//kg/day E2 (n=11), 10 mg/kg/day E4+136 ng/kg/day E2 (n=11), 5 mg/kg/day E4+1.6 mg/kg/day PROG+136 ng/kg/day E2 (n=12), 10 mg/kg/day E4+1.6 mg/kg/day PROG+136 ng/kg/day E2 (n=11), 5 mg/kg/day E4+16 mg/kg/day PROG+136 ng/kg/day E2 (n=11), 10 mg/kg/day E4+16 mg/kg/day PROG+136 ng/kg/day (n=12) groups. […] After surgery, the pups were returned to their dams and allowed to recover for 1 hour. The pups were then placed in a humidified hypoxic in vivo cabinet (CoyLab). Hypoxia was produced by the inhalation of 11%-8% of oxygen balanced by nitrogen at decreased concentration of oxygen for 20 minutes, followed by inhalation of 8% oxygen and 92% nitrogen at constant concentration for 35 minutes. All the manipulations were performed at 37° C. Upon retrieval from the hypoxia chamber the rat pups were injected ip once either by vehicle (vehicle group) or by in accordance to the group assignment. […]

[4] = Ex.3 neuroprotective HIE rat model: brain weight; details: PND14
Description: Animals were then perfused transcardially with 0.9% saline solution at 4° C., and then with 4% paraformaldehyde in a 0.1-mol/L phosphate-buffered saline solution (pH 7.4) at 4° C. The brains were quickly isolated, weighed and immersed in the same fixative solution at 4° C. for 24 hours, dehydrated with a graded series of ethanol and xylene, and embedded in paraffin.
as §1

C[C@]12CC[C@@H]3c4ccc(O)cc4CC[C@H]3[C@@H]1[C@@H](O)[C@@H](O)[C@@H]2O [E4, 1,3,5(10)-estratrien-3,15α,16α,17β-tetrol]
body weight ([1]; 1 mg/kg ip PND4-7 before HI, PND 10, 11 and 12, vs vehicle): significantly higher body weight than the vehicle group
body weight ([1]; 1 mg/kg ip PND4-7 before HI, PND 14, vs vehicle): significantly higher body weight than the vehicle group
body weight ([1]; 5 mg/kg ip PND4-7 before HI, PND 8, 9, 10, 12, vs sham): sham operated animals body weight was significantly higher
body weight ([1]; 5 mg/kg ip PND4-7 before HI, PND 14, vs vehicle): significantly higher body weight than the vehicle group
body weight ([1]; 10 mg/kg ip PND4-7 before HI, PND 9, vs vehicle): significantly higher body weight than the vehicle group
body weight ([1]; 10 mg/kg ip PND4-7 before HI, PND 10, 11 and 12, vs vehicle): significantly higher body weight than the vehicle group
body weight ([1]; 10 mg/kg ip PND4-7 before HI, PND 14, vs vehicle): significantly higher body weight than the vehicle group
body weight ([1]; 50 mg/kg ip PND4-7 before HI, PND 8, 9, 10, 12, vs sham): sham operated animals body weight was significantly higher
body weight ([1]; 50 mg/kg ip PND4-7 before HI, PND 11, 13, 14, vs sham): sham operated animals had significantly higher body weight
body weight ([1]; estetrol pre-treated (1, 5, 10, 50 mg/kg) ip PND4-7 before HI, PND 8 and 13, vs vehicle): significantly higher post-operative body weight than the vehicle pre-treated animals
rectal temperature ([2]; 5 mg/kg/day E4, 4 h after HI, E4+E2 and E4+16 mg/kg/day PROG+E2): significantly higher rectal temperature
rectal temperature ([2]; 10 mg/kg/day E4, 4 h after HI, E4+E2 and E4+16 mg/kg/day PROG): significant increase of the rectal temperature
GFAP protein concentration in blood serum [3]: 10806.52 ± 1015.19 pg/mL
brain weight ([4]; 1 mg/kg E4 ip PND4-7 before HI): 1.155 ± 0.022 g
brain weight ([4]; 5 mg/kg E4 ip PND4-7 before HI): 1.181 ± 0.023 g
brain weight ([4]; 10 mg/kg E4 ip PND4-7 before HI): 1.179 ± 0.012 g
brain weight ([4]; 50 mg/kg E4 ip PND4-7 before HI): 1.163 ± 0.016 g
